Assay results taken from US9302999B2, “Substituted triazoles as herbicides” (E. I. DU PONT DE NEMOURS AND COMPANY, priority 2012, dated 2016).

What was measured:
Type in all cases: in vivo
[1] = test system: pigweed (Amaranthus retroflexus); assay: Test A pre-/postemergence: pigweed
Summary of the method: (§1)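 Soil medium was loam blended with sand; treatments pre- and postemergence were applied concurrently, postemergence at one- to two-leaf stage. Approximately ten days in greenhouse preceded visual comparison with untreated controls, scored 0 (no effect) to 100 (complete control).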

rice (Oryza sativa) = assay: Test B flooded paddy: rice; conditions: Flood; 250 g ai/ha; applied to paddy water at 2-leaf stage; visually evaluated after 13 to 15 days
Summary of the method: (§2)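 At two leaves, seedlings received the test compound via the paddy water, pots having been flooded 3 cm over the soil surface and kept so. Greenhouse-held for 13 to 15 days, then judged by eye against controls on a scale running 0 (no effect) to 100 (complete control).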

[2] = test system: crabgrass, large (large crabgrass, Digitaria sanguinalis); assay: Test A pre-/postemergence: crabgrass, large
Summary of the method: as §1

[3] = test system: barnyardgrass (Echinochloa crus-galli); assay: Test A pre-/postemergence: barnyardgrass
Summary of the method: as §1

[4] = test system: sedge, umbrella (small-flower umbrella sedge Cyperus difformis); assay: Test B flooded paddy: sedge, umbrella; conditions: Flood; 250 g ai/ha; applied to paddy water at 2-leaf stage; visually evaluated after 13 to 15 days
Summary of the method: as §2

[5] = test system: morningglory (Ipomoea spp.); assay: Test A pre-/postemergence: morningglory
Summary of the method: as §1

[6] = test system: velvetleaf (Abutilon theophrasti); assay: Test A pre-/postemergence: velvetleaf
Summary of the method: as §1

[7] = test system: ducksalad (Heteranthera limosa); assay: Test B flooded paddy: ducksalad; conditions: Flood; 250 g ai/ha; applied to paddy water at 2-leaf stage; visually evaluated after 13 to 15 days
Summary of the method: as §2

[8] = test system: wheat (Triticum aestivum); assay: Test A pre-/postemergence: wheat
Summary of the method: as §1

[9] = test system: barnyardgrass (Echinochloa crus-galli); assay: Test B flooded paddy: barnyardgrass; conditions: Flood; 250 g ai/ha; applied to paddy water at 2-leaf stage; visually evaluated after 13 to 15 days
Summary of the method: as §2

[10] = test system: foxtail, giant (giant foxtail, Setaria faberii); assay: Test A pre-/postemergence: foxtail, giant
Summary of the method: as §1

corn (Zea mays) = assay: Test A pre-/postemergence: corn
Summary of the method: as §1

[11] = Postemergence, 125 g ai/ha, 0 to 100 scale, 0 is no effect, 100 is complete control
[12] = Postemergence, 500 g ai/ha, 0 to 100 scale, 0 is no effect, 100 is complete control
[13] = Preemergence, 125 g ai/ha, 0 to 100 scale where 0 is no effect and 100 is complete control
[14] = Preemergence, 500 g ai/ha, 0 to 100 scale (0 no effect, 100 complete control)

Cc1nn(-c2ccc(C(F)(F)F)cn2)nc1C(=NO)c1cccc(C(F)(F)F)c1 [Compound 201]
50: Morningglory plant response rating [5, 12]
40: Velvetleaf plant response rating [6, 12]
100: Pigweed plant response rating [1, 12]
10: Plant response rating, Pigweed [1, 14] | Barnyardgrass plant response rating [3, 12] | Plant response rating, Morningglory [5, 11] | Wheat plant response rating [8, 12] | Foxtail, Giant plant response rating [10, 12] | Plant response rating, Corn (corn (Zea mays); [11])
60: Plant response rating, Pigweed [1, 11]
30: Crabgrass, Large plant response rating [2, 12]
0: Plant response rating, Pigweed [1, 13] | Plant response rating, Rice (0 to 100 scale, 0 is no effect, 100 is complete control) (rice (Oryza sativa)) | Plant response rating, Crabgrass, Large [2, 13] | Plant response rating, Barnyardgrass [3, 11] | Plant response rating, Barnyardgrass [3, 13] | Plant response rating, Barnyardgrass [3, 14] | Plant response rating, Sedge, Umbrella (0 to 100 scale, 0 is no effect, 100 is complete control) [4] | Plant response rating, Morningglory [5, 13] | Plant response rating, Morningglory [5, 14] | Plant response rating, Velvetleaf [6, 13] | Plant response rating, Velvetleaf [6, 14] | Plant response rating, Ducksalad (0 to 100 scale, 0 is no effect, 100 is complete control) [7] | Plant response rating, Wheat [8, 11] | Plant response rating, Wheat [8, 13] | Plant response rating, Wheat [8, 14] | Plant response rating, Barnyardgrass (0 to 100 scale, 0 is no effect, 100 is complete control) [9] | Plant response rating, Foxtail, Giant [10, 11] | Plant response rating, Foxtail, Giant [10, 13] | Plant response rating, Corn (corn (Zea mays); [13]) | Plant response rating, Corn (corn (Zea mays); [14])
20: Plant response rating, Crabgrass, Large [2, 11] | Plant response rating, Crabgrass, Large [2, 14] | Plant response rating, Velvetleaf [6, 11] | Plant response rating, Foxtail, Giant [10, 14] | Corn plant response rating (corn (Zea mays); [12])
